Test results from the supplement of paper PMC13386468.
pIC50: −log10 of the molar value.

Assays:
Test in all cases: IC50 for competition of protein binding to Kinobeads
Settings in all cases: assay detail: Kinobeads competition in P. falciparum blood-stage lysate
UniProt Q8ILF0 = biological target: UniProt Q8ILF0
UniProt Q8I3X2 = biological target: UniProt Q8I3X2
UniProt Q8I3W0 = biological target: UniProt Q8I3W0
UniProt C6KT03 = biological target: UniProt C6KT03
UniProt Q8I447 = biological target: UniProt Q8I447
UniProt Q8IDD9 = biological target: UniProt Q8IDD9
UniProt Q8IKM5 = biological target: UniProt Q8IKM5
UniProt Q8IJQ9 = biological target: UniProt Q8IJQ9
UniProt Q8ILL2 = biological target: UniProt Q8ILL2
UniProt Q8IIB7 = biological target: UniProt Q8IIB7
UniProt Q8I5C5 = biological target: UniProt Q8I5C5
UniProt Q8IDJ4 = biological target: UniProt Q8IDJ4
UniProt Q8III5 = biological target: UniProt Q8III5
UniProt Q8I0V4 = biological target: UniProt Q8I0V4
UniProt Q7K6A5 = biological target: UniProt Q7K6A5
UniProt Q7K6A5, sequence (Q7K6A5 whole entry): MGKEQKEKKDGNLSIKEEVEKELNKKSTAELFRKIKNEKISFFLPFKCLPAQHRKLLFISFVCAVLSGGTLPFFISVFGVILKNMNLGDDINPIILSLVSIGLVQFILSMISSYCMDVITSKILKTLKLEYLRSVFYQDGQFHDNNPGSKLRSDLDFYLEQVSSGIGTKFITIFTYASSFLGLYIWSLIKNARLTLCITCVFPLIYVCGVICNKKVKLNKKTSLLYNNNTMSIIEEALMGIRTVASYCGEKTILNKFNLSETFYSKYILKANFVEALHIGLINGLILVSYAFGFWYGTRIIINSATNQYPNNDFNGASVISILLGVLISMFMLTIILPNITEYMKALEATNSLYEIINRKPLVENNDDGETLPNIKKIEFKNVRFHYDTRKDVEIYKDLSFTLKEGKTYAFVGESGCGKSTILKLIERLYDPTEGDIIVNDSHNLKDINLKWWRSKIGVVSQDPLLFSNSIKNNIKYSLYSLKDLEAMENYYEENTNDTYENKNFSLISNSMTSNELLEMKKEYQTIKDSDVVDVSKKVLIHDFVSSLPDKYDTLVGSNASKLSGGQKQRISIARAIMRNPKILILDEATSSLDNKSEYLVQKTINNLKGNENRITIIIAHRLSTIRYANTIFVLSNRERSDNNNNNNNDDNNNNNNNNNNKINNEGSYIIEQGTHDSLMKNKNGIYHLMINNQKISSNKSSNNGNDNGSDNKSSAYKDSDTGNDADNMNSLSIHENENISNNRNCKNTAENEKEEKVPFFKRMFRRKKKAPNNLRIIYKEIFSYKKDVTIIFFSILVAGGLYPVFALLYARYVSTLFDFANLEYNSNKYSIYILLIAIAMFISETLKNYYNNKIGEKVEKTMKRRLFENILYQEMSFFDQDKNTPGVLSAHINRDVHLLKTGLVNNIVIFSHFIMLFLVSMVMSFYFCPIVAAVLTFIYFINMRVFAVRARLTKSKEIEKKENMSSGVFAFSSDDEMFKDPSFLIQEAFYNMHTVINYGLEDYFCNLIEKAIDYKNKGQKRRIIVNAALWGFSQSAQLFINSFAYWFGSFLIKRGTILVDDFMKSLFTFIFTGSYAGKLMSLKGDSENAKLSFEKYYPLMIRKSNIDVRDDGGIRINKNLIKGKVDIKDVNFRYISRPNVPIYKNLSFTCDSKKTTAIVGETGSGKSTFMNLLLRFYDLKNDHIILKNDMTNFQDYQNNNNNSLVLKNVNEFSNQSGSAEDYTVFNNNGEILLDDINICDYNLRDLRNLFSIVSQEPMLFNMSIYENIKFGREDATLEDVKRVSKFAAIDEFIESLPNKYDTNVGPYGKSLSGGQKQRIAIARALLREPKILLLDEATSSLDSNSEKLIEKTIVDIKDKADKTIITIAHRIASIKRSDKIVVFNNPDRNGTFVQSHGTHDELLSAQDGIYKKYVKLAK

UniProt Q8I3Q6 = biological target: UniProt Q8I3Q6
UniProt C0H564 = biological target: UniProt C0H564
UniProt Q8II36 = biological target: UniProt Q8II36
UniProt Q8II36, sequence (Q8II36 whole entry): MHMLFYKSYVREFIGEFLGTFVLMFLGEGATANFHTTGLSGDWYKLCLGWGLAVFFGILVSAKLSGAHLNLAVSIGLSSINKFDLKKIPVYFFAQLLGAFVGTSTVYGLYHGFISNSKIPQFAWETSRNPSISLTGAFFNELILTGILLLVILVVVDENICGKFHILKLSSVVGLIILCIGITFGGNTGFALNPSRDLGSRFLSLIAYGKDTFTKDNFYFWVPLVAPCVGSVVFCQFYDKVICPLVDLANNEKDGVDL

UniProt Q8I616 = biological target: UniProt Q8I616
UniProt C0H5A0 = biological target: UniProt C0H5A0
UniProt Q8I5V9 = biological target: UniProt Q8I5V9
UniProt C6KSQ1 = biological target: UniProt C6KSQ1
UniProt Q8IIB6 = biological target: UniProt Q8IIB6
UniProt Q8IKI9 = biological target: UniProt Q8IKI9
UniProt Q76NL8 = biological target: UniProt Q76NL8
UniProt Q8I5A4 = biological target: UniProt Q8I5A4
UniProt Q8I2X4 = biological target: UniProt Q8I2X4
UniProt Q8IM16 = biological target: UniProt Q8IM16
UniProt Q8ILJ7 = biological target: UniProt Q8ILJ7
UniProt Q8ILT0 = biological target: UniProt Q8ILT0
UniProt Q8I1P3 = biological target: UniProt Q8I1P3
UniProt Q8IIQ6 = biological target: UniProt Q8IIQ6
UniProt C6KSP9 = biological target: UniProt C6KSP9
UniProt Q8IES0 = biological target: UniProt Q8IES0
UniProt Q8IKF0 = biological target: UniProt Q8IKF0
UniProt Q8IIL0 = biological target: UniProt Q8IIL0
UniProt Q8IIL0, sequence (Q8IIL0 whole entry): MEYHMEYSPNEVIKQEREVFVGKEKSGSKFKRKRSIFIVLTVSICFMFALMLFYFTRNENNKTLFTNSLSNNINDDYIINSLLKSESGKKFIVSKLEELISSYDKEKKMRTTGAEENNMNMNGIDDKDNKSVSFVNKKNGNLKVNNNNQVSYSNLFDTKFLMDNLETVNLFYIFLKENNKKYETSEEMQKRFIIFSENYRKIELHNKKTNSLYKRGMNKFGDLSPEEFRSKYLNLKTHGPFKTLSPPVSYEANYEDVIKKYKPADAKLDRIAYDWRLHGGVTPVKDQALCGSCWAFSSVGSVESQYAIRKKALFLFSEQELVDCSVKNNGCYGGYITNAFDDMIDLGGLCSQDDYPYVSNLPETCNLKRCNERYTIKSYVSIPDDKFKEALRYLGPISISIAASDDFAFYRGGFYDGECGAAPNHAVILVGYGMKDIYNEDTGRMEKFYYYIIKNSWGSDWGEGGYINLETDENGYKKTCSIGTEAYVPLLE

UniProt O97240 = biological target: UniProt O97240
UniProt O97240, sequence (O97240 whole entry): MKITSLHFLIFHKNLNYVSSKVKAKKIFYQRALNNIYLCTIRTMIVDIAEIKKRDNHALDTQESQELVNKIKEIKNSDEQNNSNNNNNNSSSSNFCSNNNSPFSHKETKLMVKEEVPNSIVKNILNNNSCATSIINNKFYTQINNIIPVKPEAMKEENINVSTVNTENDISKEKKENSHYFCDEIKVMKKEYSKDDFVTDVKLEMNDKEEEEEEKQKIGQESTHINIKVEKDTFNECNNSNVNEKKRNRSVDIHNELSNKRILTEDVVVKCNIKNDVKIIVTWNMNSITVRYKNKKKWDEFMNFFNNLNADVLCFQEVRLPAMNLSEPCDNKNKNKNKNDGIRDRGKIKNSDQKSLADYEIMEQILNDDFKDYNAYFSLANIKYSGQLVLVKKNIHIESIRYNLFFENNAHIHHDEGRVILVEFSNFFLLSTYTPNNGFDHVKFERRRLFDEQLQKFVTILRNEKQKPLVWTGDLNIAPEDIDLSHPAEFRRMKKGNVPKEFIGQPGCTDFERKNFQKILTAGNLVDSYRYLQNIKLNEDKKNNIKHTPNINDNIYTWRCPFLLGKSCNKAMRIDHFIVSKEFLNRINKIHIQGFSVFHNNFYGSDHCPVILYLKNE

UniProt Q8I2B1 = biological target: UniProt Q8I2B1
UniProt C6KTB1 = biological target: UniProt C6KTB1
UniProt Q6ZMA7 = biological target: UniProt Q6ZMA7
UniProt Q6ZMA7, sequence (Q6ZMA7 whole entry): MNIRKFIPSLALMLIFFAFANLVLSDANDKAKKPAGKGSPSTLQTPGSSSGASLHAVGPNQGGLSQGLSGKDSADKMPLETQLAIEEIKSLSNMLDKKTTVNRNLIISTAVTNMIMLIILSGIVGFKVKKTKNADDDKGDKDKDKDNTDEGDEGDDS

UniProt Q8IIS9 = biological target: UniProt Q8IIS9
UniProt Q8IKV8 = biological target: UniProt Q8IKV8
UniProt Q8II72 = biological target: UniProt Q8II72
UniProt Q8I3T5 = biological target: UniProt Q8I3T5
UniProt Q9TY96 = biological target: UniProt Q9TY96
UniProt Q9TY96, sequence (Q9TY96 whole entry): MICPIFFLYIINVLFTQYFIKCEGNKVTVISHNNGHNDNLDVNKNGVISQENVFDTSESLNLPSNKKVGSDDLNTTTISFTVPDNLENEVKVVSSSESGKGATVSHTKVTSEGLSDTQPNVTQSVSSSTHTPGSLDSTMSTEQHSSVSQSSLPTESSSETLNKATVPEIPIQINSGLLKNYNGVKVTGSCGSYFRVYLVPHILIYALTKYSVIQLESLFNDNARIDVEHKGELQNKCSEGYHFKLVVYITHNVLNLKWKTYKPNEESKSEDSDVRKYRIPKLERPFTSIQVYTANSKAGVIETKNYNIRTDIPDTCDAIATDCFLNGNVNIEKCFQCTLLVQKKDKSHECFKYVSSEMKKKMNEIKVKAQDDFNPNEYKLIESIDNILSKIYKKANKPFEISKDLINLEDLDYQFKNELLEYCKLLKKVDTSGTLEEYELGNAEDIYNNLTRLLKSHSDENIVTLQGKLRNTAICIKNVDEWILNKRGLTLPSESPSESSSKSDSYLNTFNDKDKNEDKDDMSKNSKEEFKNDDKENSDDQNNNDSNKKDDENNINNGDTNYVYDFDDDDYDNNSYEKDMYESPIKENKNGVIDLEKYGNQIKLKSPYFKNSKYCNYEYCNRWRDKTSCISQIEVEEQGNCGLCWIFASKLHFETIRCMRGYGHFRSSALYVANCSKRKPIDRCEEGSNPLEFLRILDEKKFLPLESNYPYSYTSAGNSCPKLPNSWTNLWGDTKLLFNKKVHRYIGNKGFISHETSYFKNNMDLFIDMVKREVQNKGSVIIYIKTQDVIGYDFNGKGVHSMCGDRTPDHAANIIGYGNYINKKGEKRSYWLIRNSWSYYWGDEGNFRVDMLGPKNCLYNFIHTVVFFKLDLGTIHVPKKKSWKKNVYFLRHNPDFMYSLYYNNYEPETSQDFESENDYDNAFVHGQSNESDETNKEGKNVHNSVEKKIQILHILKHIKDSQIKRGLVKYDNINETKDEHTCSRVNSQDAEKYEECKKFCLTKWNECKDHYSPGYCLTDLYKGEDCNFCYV

UniProt O77328 = biological target: UniProt O77328
UniProt Q8IJN7 = biological target: UniProt Q8IJN7
UniProt Q8IJN7, sequence (Q8IJN7 whole entry): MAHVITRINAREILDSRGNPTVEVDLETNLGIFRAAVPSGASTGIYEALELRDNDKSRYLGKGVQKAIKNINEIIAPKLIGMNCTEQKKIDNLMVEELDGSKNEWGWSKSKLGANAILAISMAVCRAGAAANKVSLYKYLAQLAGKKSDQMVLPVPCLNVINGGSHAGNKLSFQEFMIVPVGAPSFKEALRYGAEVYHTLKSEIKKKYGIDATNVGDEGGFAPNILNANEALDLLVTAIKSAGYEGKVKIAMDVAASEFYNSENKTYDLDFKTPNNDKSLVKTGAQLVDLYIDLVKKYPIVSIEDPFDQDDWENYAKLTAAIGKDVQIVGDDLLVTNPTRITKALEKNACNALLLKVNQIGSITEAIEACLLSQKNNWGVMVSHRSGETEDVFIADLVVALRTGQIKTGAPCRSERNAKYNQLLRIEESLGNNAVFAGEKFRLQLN

UniProt O97248 = biological target: UniProt O97248
UniProt Q8I510 = biological target: UniProt Q8I510
UniProt Q8I3F0 = biological target: UniProt Q8I3F0
UniProt Q8ILQ7 = biological target: UniProt Q8ILQ7
UniProt Q8ILQ7, sequence (Q8ILQ7 whole entry): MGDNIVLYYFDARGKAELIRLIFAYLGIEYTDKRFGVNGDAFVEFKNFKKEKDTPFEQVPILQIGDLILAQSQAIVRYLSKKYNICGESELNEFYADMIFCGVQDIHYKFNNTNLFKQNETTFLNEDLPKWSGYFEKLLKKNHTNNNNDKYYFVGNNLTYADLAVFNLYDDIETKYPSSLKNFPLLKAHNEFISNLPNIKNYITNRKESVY

Measured: pIC50
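Further: native unpurified kinases from lysate captured on beads bearing immobilized kinase inhibitors, with bead-bound kinases quantified by mass spectrometry across compound doses.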

O=c1[nH]c2ccc(Cl)cc2c(NC2CN3CCC2CC3)c1-c1nc2ccccc2[nH]1 (stereo unspecified) [CHIR-124]
6.52: UniProt C6KSQ1
< 4.70: all other assays above
